For this data set, the system named is CCRIS mutagenicity, Ames/micronucleus/aberration tests. Briefly: CCRIS mutagenicity studies.
Setting [1] is: Test System: AMES SALMONELLA TYPHIMURIUM, Strain/Indicator: TA98, Metabolic Activation: NONE, Method: STANDARD PLATE.
Where [2] appears, read: Test System: AMES SALMONELLA TYPHIMURIUM, Strain/Indicator: TA98, Metabolic Activation: RAT, LIVER, S-9, AROCLOR 1254, Method: STANDARD PLATE.
[3] abbreviates: Test System: AMES SALMONELLA TYPHIMURIUM, Strain/Indicator: TA100, Metabolic Activation: NONE, Method: STANDARD PLATE.
Where [4] appears, read: Test System: AMES SALMONELLA TYPHIMURIUM, Strain/Indicator: TA100, Metabolic Activation: RAT, LIVER, S-9, AROCLOR 1254, Method: STANDARD PLATE.
[5] abbreviates: Test System: AMES SALMONELLA TYPHIMURIUM, Strain/Indicator: TA1537, Metabolic Activation: NONE, Method: STANDARD PLATE.

The source made the active and inactive calls. How the calls were made is not given here.

Take `NC(=O)N/N=C/C(=O)O`: the mutagenic call is, setting by setting: under setting [1], “inactive; negative”; under setting [2], “inactive; negative”; under setting [3], “inactive; negative”; under setting [4], “inactive; negative”; (Test System: AMES SALMONELLA TYPHIMURIUM, Strain/Indicator: TA1535, Metabolic Activation: NONE, Method: STANDARD PLATE) “inactive; negative”; (Test System: AMES SALMONELLA TYPHIMURIUM, Strain/Indicator: TA1535, Metabolic Activation: RAT, LIVER, S-9, AROCLOR 1254, Method: STANDARD PLATE) “inactive; negative”. The mutagenic call by setting is: under setting [5], “inactive; negative”; (Test System: AMES SALMONELLA TYPHIMURIUM, Strain/Indicator: TA1537, Metabolic Activation: RAT, LIVER, S-9, AROCLOR 1254, Method: STANDARD PLATE) “inactive; negative”; (Test System: AMES SALMONELLA TYPHIMURIUM, Strain/Indicator: TA1538, Metabolic Activation: NONE, Method: STANDARD PLATE) “inactive; negative”; (Test System: AMES SALMONELLA TYPHIMURIUM, Strain/Indicator: TA1538, Metabolic Activation: RAT, LIVER, S-9, AROCLOR 1254, Method: STANDARD PLATE) “inactive; negative”.
For the compound `CN(C)CCNC(=O)c1cccc2c(N)c3ccccc3nc12`, under setting [5], the mutagenic call is “active; positive”.
Consider `CCn1cc(C(=O)O)c(=O)c2ccc(C)nc21`, for which the mutagenic call is, setting by setting: (End Point: In vitro micronucleus, Test System: WTK-1 human lymphoma cells, Metabolic Activation: None) “inactive; negative”; (Test System: AMES SALMONELLA TYPHIMURIUM, Strain/Indicator: TA97, Metabolic Activation: HAMSTER, LIVER, S-9, AROCLOR 1254 (10% OR 30%), Method: PREINCUBATION) “inactive; negative”; (Test System: AMES SALMONELLA TYPHIMURIUM, Strain/Indicator: TA97, Metabolic Activation: HAMSTER, LIVER, S-9, AROCLOR 1254 (10 OR 30%), Method: PREINCUBATION) “inactive; negative”; (Test System: AMES SALMONELLA TYPHIMURIUM, Strain/Indicator: TA97, Metabolic Activation: NONE, Method: PREINCUBATION) “inactive; negative”; (Test System: AMES SALMONELLA TYPHIMURIUM, Strain/Indicator: TA97, Metabolic Activation: RAT, LIVER, S-9, AROCLOR 1254 (10% OR 30%), Method: PREINCUBATION) “inactive; negative”; (Test System: AMES SALMONELLA TYPHIMURIUM, Strain/Indicator: TA97, Metabolic Activation: RAT, LIVER, S-9, AROCLOR 1254 (10 OR 30%), Method: PREINCUBATION) “inactive; negative”. The mutagenic call runs as follows: (Test System: AMES SALMONELLA TYPHIMURIUM, Strain/Indicator: TA98, Metabolic Activation: HAMSTER, LIVER, S-9, AROCLOR 1254 (10% OR 30%), Method: PREINCUBATION) “inactive; negative”; (Test System: AMES SALMONELLA TYPHIMURIUM, Strain/Indicator: TA98, Metabolic Activation: HAMSTER, LIVER, S-9, AROCLOR 1254 (10 OR 30%), Method: PREINCUBATION) “inactive; negative”; (Test System: AMES SALMONELLA TYPHIMURIUM, Strain/Indicator: TA98, Metabolic Activation: NONE, Method: PREINCUBATION) “inactive; negative”; (Test System: AMES SALMONELLA TYPHIMURIUM, Strain/Indicator: TA98, Metabolic Activation: RAT, LIVER, S-9, AROCLOR 1254 (10% OR 30%), Method: PREINCUBATION) “inactive; negative”; (Test System: AMES SALMONELLA TYPHIMURIUM, Strain/Indicator: TA98, Metabolic Activation: RAT, LIVER, S-9, AROCLOR 1254 (10 OR 30%), Method: PREINCUBATION) “inactive; negative”; (Test System: AMES SALMONELLA TYPHIMURIUM, Strain/Indicator: TA100, Metabolic Activation: HAMSTER, LIVER, S-9, AROCLOR 1254 (10%), Method: PREINCUBATION) “inactive; negative”. For the same compound, the mutagenic call is “inactive; negative” (Test System: AMES SALMONELLA TYPHIMURIUM, Strain/Indicator: TA100, Metabolic Activation: HAMSTER, LIVER, S-9, AROCLOR 1254 (30%), Method: PREINCUBATION); “inactive; negative” (Test System: AMES SALMONELLA TYPHIMURIUM, Strain/Indicator: TA100, Metabolic Activation: NONE, Method: PREINCUBATION); “inactive; negative” (Test System: AMES SALMONELLA TYPHIMURIUM, Strain/Indicator: TA100, Metabolic Activation: RAT, LIVER, S-9, AROCLOR 1254 (10% OR 30%), Method: PREINCUBATION); “inactive; negative” (Test System: AMES SALMONELLA TYPHIMURIUM, Strain/Indicator: TA100, Metabolic Activation: RAT, LIVER, S-9, AROCLOR 1254 (10 OR 30%), Method: PREINCUBATION); “active; positive” (Test System: AMES SALMONELLA TYPHIMURIUM, Strain/Indicator: TA102, Metabolic Activation: NONE, Method: STANDARD PLATE); “inactive; negative” (Test System: AMES SALMONELLA TYPHIMURIUM, Strain/Indicator: TA1535, Metabolic Activation: HAMSTER, LIVER, S-9, AROCLOR 1254 (10% OR 30%), Method: PREINCUBATION). In addition, the mutagenic call (Test System: AMES SALMONELLA TYPHIMURIUM, Strain/Indicator: TA1535, Metabolic Activation: HAMSTER, LIVER, S-9, AROCLOR 1254 (10 OR 30%), Method: PREINCUBATION) was “inactive; negative”; the mutagenic call (Test System: AMES SALMONELLA TYPHIMURIUM, Strain/Indicator: TA1535, Metabolic Activation: NONE, Method: PREINCUBATION) was “inactive; negative”; the mutagenic call (Test System: AMES SALMONELLA TYPHIMURIUM, Strain/Indicator: TA1535, Metabolic Activation: RAT, LIVER, S-9, AROCLOR 1254 (10% OR 30%), Method: PREINCUBATION) is “inactive; negative”; the mutagenic call (Test System: AMES SALMONELLA TYPHIMURIUM, Strain/Indicator: TA1535, Metabolic Activation: RAT, LIVER, S-9, AROCLOR 1254 (10 OR 30%), Method: PREINCUBATION) is “inactive; negative”; the mutagenic call (Test System: AMES SALMONELLA TYPHIMURIUM, Strain/Indicator: TA2638, Metabolic Activation: NONE, Method: STANDARD PLATE) was “inactive; negative”; the mutagenic call (Test System: CHINESE HAMSTER V-79, Strain/Indicator: V-79 (HPRT)/6-THIOGUANINE, Metabolic Activation: NONE) was “inactive; negative”. In addition, the mutagenic call is “active; positive” (Test System: E. COLI, Strain/Indicator: WP2 (PKM101), Metabolic Activation: NONE, Method: STANDARD PLATE); “active; positive” (Test System: E. COLI, Strain/Indicator: WP2 UVRA (PKM101), Metabolic Activation: NONE, Method: STANDARD PLATE); “inactive; negative” (Test System: MOUSE LYMPHOMA, Strain/Indicator: L5178Y (HPRT)/6-THIOGUANINE, Metabolic Activation: NONE, Method: FLUCTUATION TEST); “inactive; negative” (Test System: MOUSE LYMPHOMA, Strain/Indicator: L5178Y (TK+/TK-), Metabolic Activation: NONE, Method: FLUCTUATION TEST); “inactive; negative” (Test System: MOUSE LYMPHOMA, Strain/Indicator: L5178Y (TK+/TK-), Metabolic Activation: NONE, Method: SUSPENSION/PLATE); “inactive; negative” (Test System: MOUSE LYMPHOMA, Strain/Indicator: L5178Y (TK+/TK-), Metabolic Activation: RAT, LIVER, S-9, AROCLOR 1254, Method: SUSPENSION/PLATE).
As for `CC(=O)Nc1ccc(/C=C/C(=O)c2ccccc2)cc1`, the mutagenic call under setting [1] is “inactive; negative”, the mutagenic call under setting [2] was “active; positive”, the mutagenic call under setting [3] is “active; positive” and the mutagenic call under setting [4] was “active; positive”.
For `Clc1cccc(-c2nc3ccccc3o2)c1`, the mutagenic call under setting [1] is “inactive; negative”.
As to `O=[N+]([O-])c1cccc2ccccc12`, the mutagenic call under setting [1] was “active; positive”; the mutagenic call (Test System: E. COLI, Strain/Indicator: WP2 UVRA, Metabolic Activation: HAMSTER, LIVER, S-9, AROCLOR 1254, Method: STANDARD PLATE) was “inactive; negative”; the mutagenic call (Test System: E. COLI, Strain/Indicator: WP2 UVRA, Metabolic Activation: MOUSE, LIVER, S-9, AROCLOR 1254, Method: STANDARD PLATE) was “inactive; negative”; the mutagenic call (Test System: E. COLI, Strain/Indicator: WP2 UVRA, Metabolic Activation: MOUSE, LIVER, S-9, Method: STANDARD PLATE) is “inactive; negative”; the mutagenic call (Test System: E. COLI, Strain/Indicator: WP2 UVRA, Metabolic Activation: NONE, Method: STANDARD PLATE) is “inactive; negative”; the mutagenic call (Test System: E. COLI, Strain/Indicator: WP2 UVRA, Metabolic Activation: RAT, LIVER, S-9, AROCLOR 1254, Method: STANDARD PLATE) is “inactive; negative”. In addition, the mutagenic call (Test System: E. COLI, Strain/Indicator: WP2 UVRA, Metabolic Activation: RAT, LIVER, S-9, Method: STANDARD PLATE) was “inactive; negative”.

(Values after PubChem BioAssay AID1259407 (Chemical Carcinogenesis Research Information System (CCRIS), 2018).)
